What was measured:
[1] = molecular target: T1, human plasma type α1,3FucT (Homo sapiens, UniProt Q11128); experiment: Substrate specificity and inhibition study of α1,3FucT (GDP-14C-Fuc transfer assay); type: biochemical; settings: 0.1 mM GDP-Fuc
T1 sequence (Q11128 1-374): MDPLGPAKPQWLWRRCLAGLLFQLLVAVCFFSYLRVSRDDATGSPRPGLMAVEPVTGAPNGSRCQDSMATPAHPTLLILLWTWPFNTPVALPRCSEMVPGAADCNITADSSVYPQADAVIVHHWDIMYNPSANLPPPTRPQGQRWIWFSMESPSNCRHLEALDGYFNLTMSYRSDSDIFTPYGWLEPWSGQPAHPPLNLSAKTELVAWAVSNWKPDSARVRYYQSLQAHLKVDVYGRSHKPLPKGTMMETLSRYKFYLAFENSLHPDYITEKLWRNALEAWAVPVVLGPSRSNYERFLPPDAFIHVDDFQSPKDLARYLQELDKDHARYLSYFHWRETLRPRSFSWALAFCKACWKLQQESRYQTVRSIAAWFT
Experimental: The assay procedure was essentially the same as described previously [Fukowska-Latallo et al, Gene & Development, 4:1288 (1990)] with some modifications. A stock mixture containing 0.25 mM GDP-^14C-Fuc (5000 cpm/mL), 6.25 mM ATP, 25 mM MnCl2 and 62.5 mM sodium cacodylate buffer, pH 6.2 was mixed freshly and kept on ice. […] The incubation was carried out at 37° C. for 30 to 240 minutes depending upon the acceptor under study. Separate assays in the absence of acceptor were used to correct for background hydrolysis of GDP-Fuc. Upon completion of incubation, 400 μL of a 25 percent (v/v) suspension of QAE-Sephadex was added. […] From the supernatant fluid, 200 μL were extracted and mixed with 10 mL of scintillation cocktail. The radioactivity was counted on a scintillation counter. […] This assay can be run in the absence of ATP.

α2,3SiaT = molecular target: T2, α2,3SiaT (Rattus norvegicus, UniProt Q02734); experiment: Enzymatic sialylation with α2,3sialyltransferase; type: biochemical
T2 construct: fusion protein between the pre-insulin signal peptide and the catalytic domain of the sialyltransferase; pre-insulin signal peptide (N); made in house; host or cells: Sf-9 insect cells (baculovirus rBv2,3ST), secreted into the medium
T2 sequence (Q02734 48-374 limits assumed): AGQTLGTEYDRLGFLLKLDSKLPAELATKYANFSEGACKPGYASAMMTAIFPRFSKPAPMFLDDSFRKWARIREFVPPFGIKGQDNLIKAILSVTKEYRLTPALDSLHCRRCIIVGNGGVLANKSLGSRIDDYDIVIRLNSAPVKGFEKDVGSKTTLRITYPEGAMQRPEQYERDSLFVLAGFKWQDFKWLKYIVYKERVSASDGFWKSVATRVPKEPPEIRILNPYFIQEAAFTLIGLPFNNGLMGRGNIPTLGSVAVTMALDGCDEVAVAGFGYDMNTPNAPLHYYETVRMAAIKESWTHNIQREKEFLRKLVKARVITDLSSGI
From the text: Sialylation A multienzyme system for sialylation starts with NeuAc, [Gal-1-^13C]-LacNAcβOallyl, PEP, and catalytic amounts of ATP and CMP, as is shown in Scheme 16, below. CMP was converted to CDP by nucleoside monophosphate kinase (EC 2.7.4.4, NMK) in the presence of ATP, which was regenerated from its byproduct ADP catalyzed by PK in the presence of PEP, then to CTP with PEP by PK. The CTP was then reacted with NeuAc with CMP-NeuAc synthetase (EC 2.7.7.43) to produce CMP-NeuAc. The byproduct, PPi was hydrolyzed to Pi by PPase. Sialylation of LacNAcβOallyl was accomplished with CMP-NeuAc and α2,3sialyltransferase (α2,3SiaT; EC 2.4.99.6). The released CMP was again converted to CDP, CTP, and finally to CMP-NeuAc. Using this system, [Gal-1-^13C]NeuAcα2,3Galβ1,4GlcNAcβOallyl (Compound 42) as well as the unlabelled trisaccharide were prepared.
A solution of Compound 1-^13C-41 (210 mg, […]), NeuAc (160 mg, […]), PEP Na3 salt (120 mg, 0.51 mmol), MgCl2.6H2O (20 mg, 0.10 mmol), MnCl2.4H2O (4.9 mg, 0.025 mmol), KCl (7.5 mg, 0.10 mmol), CMP (16 mg, 0.05 mmol), ATP (2.7 mg, […]) and mercaptoethanol (0.34 mL) in HEPES buffer (200 mM, pH 7.5; 3.5 mL) was adjusted with N NaOH to pH 7.5 and the enzymes, NMK (5 U), PK (100 U), PPase (10 U), CMP-NeuAc synthetase (0.4 U) and α2,3SiaT (0.1 U) were added to the solution. […]

IC50 ([1]; 10 mM Mn2+ and 10 mM LacNAc at pH 6.2 and 37° C.): > 50 mM
Vrel (relative maximal velocities) ([1]; 10 mM MnCl2 and 10 mM Galβ1,4GlcNAc, Galβ1,4GlcNAc = 100): 10
substrate for α2,3SiaT (in words) (α2,3SiaT): good substrate
Compound: OC[C@H]1O[C@@H](O[C@H]2[C@H](O)C=CO[C@@H]2CO)[C@H](O)[C@@H](O)[C@H]1O [Galβ1,4Glucal]

Source: US7335500B2, “Production of fucosylated carbohydrates by enzymatic fucosylation synthesis of sugar nucleotides; and in situ regeneration of GDP-fucose” (The Scripps Research Institute, priority 1991, dated 2008)
